Reference: ChEMBL document CHEMBL3352205, “Indazole- and indole-5-carboxamides: selective and reversible monoamine oxidase B inhibitors with subnanomolar potency” (J Med Chem, 2014)

Each molecule was assayed against T1, Amine oxidase [flavin-containing] B (Homo sapiens, UniProt P27338) (assay: biochemical). Settings: not given; call rule not given here.
T1 sequence (P27338 whole entry): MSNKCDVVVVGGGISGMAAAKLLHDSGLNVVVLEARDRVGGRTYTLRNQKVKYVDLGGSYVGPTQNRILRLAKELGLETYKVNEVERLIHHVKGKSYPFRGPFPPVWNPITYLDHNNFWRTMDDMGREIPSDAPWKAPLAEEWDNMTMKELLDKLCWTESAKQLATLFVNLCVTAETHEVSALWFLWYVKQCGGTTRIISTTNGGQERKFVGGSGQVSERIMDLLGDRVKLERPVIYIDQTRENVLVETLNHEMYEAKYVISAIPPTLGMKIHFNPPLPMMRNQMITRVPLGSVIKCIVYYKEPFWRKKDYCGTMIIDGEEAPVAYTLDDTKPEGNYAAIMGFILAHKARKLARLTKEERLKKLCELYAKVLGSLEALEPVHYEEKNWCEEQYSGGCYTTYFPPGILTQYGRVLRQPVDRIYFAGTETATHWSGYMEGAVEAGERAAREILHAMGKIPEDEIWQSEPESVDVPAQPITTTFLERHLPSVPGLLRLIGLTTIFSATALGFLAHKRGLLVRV
Assay type: cell-based

Point of comparison: O=C(Nc1ccc2[nH]ncc2c1)c1ccc(Cl)c(Cl)c1, IC50 0.0124 µM. Against it:
- Cn1ncc2cc(/C=N/c3ccc(Cl)c(Cl)c3)ccc21 — 12-fold lower, 0.00103 µM
- Cn1cc(C(=O)Nc2ccc3[nH]ncc3c2)ccc1=O — higher, > 10 µM
- O=[N+]([O-])c1ccc2[nH]ncc2c1 — 200-fold higher, 2.5 µM
- O=C(Nc1ccc(Cl)c(Cl)c1)c1ccc2nccn2c1 — 11-fold higher, 0.141 µM
- COc1cc(NC(=O)c2ccc3cn[nH]c3c2)ccc1Cl — 220-fold higher, 2.76 µM
- COc1ccc(NC(=O)c2ccc3cn[nH]c3c2)cc1Cl — 100-fold higher, 1.28 µM
- O=C(Nc1cc(Cl)cc(Cl)c1)c1ccc2cn[nH]c2c1 — 27-fold higher, 0.335 µM
- O=C(Nc1ccc2[nH]ncc2c1)c1cccc(Cl)c1Cl — 210-fold higher, 2.59 µM
- O=C(Nc1ccc(Cl)c(F)c1)c1ccc2cn[nH]c2c1 — 25-fold higher, 0.316 µM
- O=C(NCc1ccc(Cl)c(Cl)c1)c1ccc2[nH]ncc2c1 — 31-fold higher, 0.388 µM
- O=C(Nc1ccc(F)c(Cl)c1)c1ccc2cn[nH]c2c1 — 19-fold higher, 0.234 µM
- O=C(Nc1ccc2[nH]ncc2c1)c1c(F)cccc1Cl — 270-fold higher, 3.3 µM
- O=C(Nc1ccc(Cl)c(Cl)c1)c1ccc2cn[nH]c2c1 — 5.4-fold higher, 0.0671 µM
- O=C(Nc1ccc(O)c(Cl)c1)c1ccc2cn[nH]c2c1 — not separable, < 10 µM
- O=C(Nc1ccc(Cl)c(O)c1)c1ccc2cn[nH]c2c1 — 500-fold higher, 6.22 µM
- O=C(Nc1ccc2cn[nH]c2c1)c1cnc(N2CCOCC2)c(Cl)c1 — 18-fold higher, 0.22 µM
- O=C(Nc1ccc(Cl)c(Cl)c1)c1ccc2nncn2c1 — 180-fold higher, 2.27 µM

These molecules were tested against T2, Amine oxidase [flavin-containing] A (Rattus norvegicus, UniProt P21396) (assay: Inhibition of rat MAO-A from mitochondria-enriched rat liver fractions using p-tyraimne substrate). Settings: not given.
T2 sequence (P21396 whole entry): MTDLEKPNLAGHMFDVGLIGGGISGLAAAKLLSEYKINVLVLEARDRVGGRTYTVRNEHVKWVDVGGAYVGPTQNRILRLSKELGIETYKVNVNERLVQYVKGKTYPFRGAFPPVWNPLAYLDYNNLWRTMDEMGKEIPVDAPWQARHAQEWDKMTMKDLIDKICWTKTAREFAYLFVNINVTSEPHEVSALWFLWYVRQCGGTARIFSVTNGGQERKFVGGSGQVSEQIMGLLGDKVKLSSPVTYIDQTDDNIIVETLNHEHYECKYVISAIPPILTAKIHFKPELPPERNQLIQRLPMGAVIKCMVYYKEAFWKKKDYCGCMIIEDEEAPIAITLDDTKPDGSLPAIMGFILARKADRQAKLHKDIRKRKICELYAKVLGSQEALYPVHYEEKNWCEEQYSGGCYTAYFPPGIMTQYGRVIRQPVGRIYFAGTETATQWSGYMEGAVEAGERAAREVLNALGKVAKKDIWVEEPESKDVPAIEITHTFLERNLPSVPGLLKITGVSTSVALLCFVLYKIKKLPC

First: Cn1ncc2cc(/C=N/c3ccc(Cl)c(Cl)c3)ccc21
Second: O=C(Nc1ccc(Cl)c(Cl)c1)c1ccc2cn[nH]c2c1
The IC50 of the first is higher: greater than 10 µM for the first, less than 10 µM for the second. The second is the more potent here.

Cn1cc(C(=O)Nc2ccc3[nH]ncc3c2)ccc1=O and O=C(Nc1ccc2[nH]ncc2c1)c1ccc(Cl)c(Cl)c1 cannot be ordered by IC50: greater than 10 µM for the first, greater than 10 µM for the second.

O=C(Nc1ccc(Cl)c(Cl)c1)c1ccc2nccn2c1 and O=C(Nc1ccc(Cl)c(Cl)c1)c1ccc2nncn2c1 cannot be ordered by IC50: greater than 10 µM for the first, greater than 10 µM for the second.

COc1cc(NC(=O)c2ccc3cn[nH]c3c2)ccc1Cl and COc1ccc(NC(=O)c2ccc3cn[nH]c3c2)cc1Cl cannot be ordered by IC50: greater than 10 µM for the first, greater than 10 µM for the second.

O=C(Nc1cc(Cl)cc(Cl)c1)c1ccc2cn[nH]c2c1 and O=C(Nc1ccc(F)c(Cl)c1)c1ccc2cn[nH]c2c1 cannot be ordered by IC50: greater than 10 µM for the first, greater than 10 µM for the second.

O=C(Nc1ccc2[nH]ncc2c1)c1cccc(Cl)c1Cl and O=C(Nc1ccc2[nH]ncc2c1)c1c(F)cccc1Cl cannot be ordered by IC50: greater than 10 µM for the first, greater than 10 µM for the second.

O=C(Nc1ccc(Cl)c(F)c1)c1ccc2cn[nH]c2c1 and O=C(Nc1ccc(Cl)c(O)c1)c1ccc2cn[nH]c2c1 cannot be ordered by IC50: greater than 10 µM for the first, greater than 10 µM for the second.

O=C(NCc1ccc(Cl)c(Cl)c1)c1ccc2[nH]ncc2c1 and O=C(Nc1ccc(O)c(Cl)c1)c1ccc2cn[nH]c2c1 cannot be ordered by IC50: greater than 10 µM for the first, greater than 10 µM for the second.

In the case of O=C(Nc1ccc2cn[nH]c2c1)c1cnc(N2CCOCC2)c(Cl)c1, the IC50 is reported as greater than 10 µM.

These molecules were tested against T3, Amine oxidase [flavin-containing] A (Homo sapiens, UniProt P21397) (assay: Inhibition of human recombinant MAO-A expressed in baculovirus-infected insect cells using p-tyraimne substrate). Settings: not given.
T3 sequence (P21397 whole entry): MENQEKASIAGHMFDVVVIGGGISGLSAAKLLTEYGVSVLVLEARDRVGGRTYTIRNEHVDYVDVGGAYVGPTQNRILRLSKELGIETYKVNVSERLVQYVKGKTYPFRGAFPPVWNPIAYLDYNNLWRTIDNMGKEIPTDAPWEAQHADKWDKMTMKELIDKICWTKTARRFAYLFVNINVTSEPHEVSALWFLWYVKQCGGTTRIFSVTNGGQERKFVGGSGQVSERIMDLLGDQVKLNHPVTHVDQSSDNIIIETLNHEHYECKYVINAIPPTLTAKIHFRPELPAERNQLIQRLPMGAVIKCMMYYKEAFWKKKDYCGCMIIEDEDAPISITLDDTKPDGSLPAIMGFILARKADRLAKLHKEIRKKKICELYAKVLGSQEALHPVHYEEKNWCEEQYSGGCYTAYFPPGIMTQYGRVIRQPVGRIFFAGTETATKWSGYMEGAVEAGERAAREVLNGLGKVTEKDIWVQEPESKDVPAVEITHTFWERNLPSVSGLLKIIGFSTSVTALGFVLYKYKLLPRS

For O=[N+]([O-])c1ccc2[nH]ncc2c1, the IC50 was “Not Active”.

Same assay, conditions: read-out: IC50

Point of comparison: O=C(Nc1ccc(Cl)c(Cl)c1)c1ccc2cn[nH]c2c1, IC50 3.31 µM. Against it:
- Cn1ncc2cc(/C=N/c3ccc(Cl)c(Cl)c3)ccc21 — not separable, < 10 µM
- Cn1cc(C(=O)Nc2ccc3[nH]ncc3c2)ccc1=O — higher, > 10 µM
- O=C(Nc1ccc(Cl)c(Cl)c1)c1ccc2nccn2c1 — higher, > 10 µM
- COc1cc(NC(=O)c2ccc3cn[nH]c3c2)ccc1Cl — higher, > 10 µM
- COc1ccc(NC(=O)c2ccc3cn[nH]c3c2)cc1Cl — higher, > 10 µM
- O=C(Nc1cc(Cl)cc(Cl)c1)c1ccc2cn[nH]c2c1 — higher, > 10 µM
- O=C(Nc1ccc2[nH]ncc2c1)c1cccc(Cl)c1Cl — higher, > 10 µM
- O=C(Nc1ccc(Cl)c(F)c1)c1ccc2cn[nH]c2c1 — higher, > 10 µM
- O=C(NCc1ccc(Cl)c(Cl)c1)c1ccc2[nH]ncc2c1 — higher, > 10 µM
- O=C(Nc1ccc(F)c(Cl)c1)c1ccc2cn[nH]c2c1 — higher, > 10 µM
- O=C(Nc1ccc2[nH]ncc2c1)c1c(F)cccc1Cl — higher, > 10 µM
- O=C(Nc1ccc2[nH]ncc2c1)c1ccc(Cl)c(Cl)c1 — higher, > 10 µM
- O=C(Nc1ccc(O)c(Cl)c1)c1ccc2cn[nH]c2c1 — higher, > 10 µM
- O=C(Nc1ccc(Cl)c(O)c1)c1ccc2cn[nH]c2c1 — higher, > 10 µM
- O=C(Nc1ccc2cn[nH]c2c1)c1cnc(N2CCOCC2)c(Cl)c1 — higher, > 10 µM
- O=C(Nc1ccc(Cl)c(Cl)c1)c1ccc2nncn2c1 — higher, > 10 µM

These molecules were tested against T4, Amine oxidase [flavin-containing] B (Rattus norvegicus, UniProt P19643) (assay: Inhibition of rat MAO-B from mitochondria-enriched rat liver fractions using p-tyraimne substrate). Settings: not given.
T4 sequence (P19643 whole entry): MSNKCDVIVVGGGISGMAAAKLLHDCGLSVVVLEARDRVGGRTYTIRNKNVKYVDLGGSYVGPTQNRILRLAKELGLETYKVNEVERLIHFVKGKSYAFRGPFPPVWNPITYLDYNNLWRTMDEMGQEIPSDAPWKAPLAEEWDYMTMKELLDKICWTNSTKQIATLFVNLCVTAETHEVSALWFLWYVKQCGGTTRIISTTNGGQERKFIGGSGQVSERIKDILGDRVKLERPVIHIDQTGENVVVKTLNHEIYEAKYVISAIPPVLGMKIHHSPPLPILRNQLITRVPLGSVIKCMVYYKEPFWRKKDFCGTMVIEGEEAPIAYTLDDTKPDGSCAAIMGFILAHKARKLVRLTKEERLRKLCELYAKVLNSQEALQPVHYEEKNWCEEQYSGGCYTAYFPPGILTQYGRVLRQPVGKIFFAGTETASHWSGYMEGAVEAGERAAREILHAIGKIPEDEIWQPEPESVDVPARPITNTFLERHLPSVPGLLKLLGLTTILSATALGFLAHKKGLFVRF

Point of comparison: Cn1ncc2cc(/C=N/c3ccc(Cl)c(Cl)c3)ccc21, IC50 0.00455 µM. Against it:
- Cn1cc(C(=O)Nc2ccc3[nH]ncc3c2)ccc1=O — higher, > 10 µM
- O=C(Nc1ccc(Cl)c(Cl)c1)c1ccc2nccn2c1 — 250-fold higher, 1.14 µM
- COc1cc(NC(=O)c2ccc3cn[nH]c3c2)ccc1Cl — higher, > 10 µM
- COc1ccc(NC(=O)c2ccc3cn[nH]c3c2)cc1Cl — not separable, < 10 µM
- O=C(Nc1cc(Cl)cc(Cl)c1)c1ccc2cn[nH]c2c1 — 93-fold higher, 0.423 µM
- O=C(Nc1ccc2[nH]ncc2c1)c1cccc(Cl)c1Cl — higher, > 10 µM
- O=C(Nc1ccc(Cl)c(F)c1)c1ccc2cn[nH]c2c1 — 590-fold higher, 2.67 µM
- O=C(NCc1ccc(Cl)c(Cl)c1)c1ccc2[nH]ncc2c1 — 180-fold higher, 0.837 µM
- O=C(Nc1ccc(F)c(Cl)c1)c1ccc2cn[nH]c2c1 — 240-fold higher, 1.07 µM
- O=C(Nc1ccc2[nH]ncc2c1)c1c(F)cccc1Cl — higher, > 10 µM
- O=C(Nc1ccc(Cl)c(Cl)c1)c1ccc2cn[nH]c2c1 — 100-fold higher, 0.466 µM
- O=C(Nc1ccc2[nH]ncc2c1)c1ccc(Cl)c(Cl)c1 — 30-fold higher, 0.138 µM
- O=C(Nc1ccc(O)c(Cl)c1)c1ccc2cn[nH]c2c1 — 720-fold higher, 3.28 µM
- O=C(Nc1ccc(Cl)c(O)c1)c1ccc2cn[nH]c2c1 — higher, > 10 µM
- O=C(Nc1ccc2cn[nH]c2c1)c1cnc(N2CCOCC2)c(Cl)c1 — 440-fold higher, 1.99 µM
- O=C(Nc1ccc(Cl)c(Cl)c1)c1ccc2nncn2c1 — higher, > 10 µM

Species on record: Homo sapiens
Assay: Selectivity index, ratio of IC50 for human recombinant MAO-A to IC50 for human recombinant MAO-B
Settings: not given

Point of comparison: Cn1ncc2cc(/C=N/c3ccc(Cl)c(Cl)c3)ccc21, Ratio IC50 9710. Against it:
- O=C(Nc1ccc(Cl)c(Cl)c1)c1ccc2nccn2c1 — lower, 71
- COc1cc(NC(=O)c2ccc3cn[nH]c3c2)ccc1Cl — lower, 4
- COc1ccc(NC(=O)c2ccc3cn[nH]c3c2)cc1Cl — lower, 8
- O=C(Nc1cc(Cl)cc(Cl)c1)c1ccc2cn[nH]c2c1 — not separable, > 29
- O=C(Nc1ccc(Cl)c(F)c1)c1ccc2cn[nH]c2c1 — not separable, > 31
- O=C(NCc1ccc(Cl)c(Cl)c1)c1ccc2[nH]ncc2c1 — not separable, > 25
- O=C(Nc1ccc(F)c(Cl)c1)c1ccc2cn[nH]c2c1 — not separable, > 42
- O=C(Nc1ccc(Cl)c(Cl)c1)c1ccc2cn[nH]c2c1 — not separable, > 49
- O=C(Nc1ccc2[nH]ncc2c1)c1ccc(Cl)c(Cl)c1 — lower, 806
- O=C(Nc1ccc(Cl)c(O)c1)c1ccc2cn[nH]c2c1 — lower, 2
- O=C(Nc1ccc2cn[nH]c2c1)c1cnc(N2CCOCC2)c(Cl)c1 — not separable, > 9
- O=C(Nc1ccc(Cl)c(Cl)c1)c1ccc2nncn2c1 — not separable, > 4
